Measurements reported in patent US12486300B2, “Mithramycin oxime derivatives having increased selectivity and anti-cancer activity” (University of Kentucky Research Foundation, priority 2018, dated 2025).

Columns and labels:
Format in all cases: cell-based
[1] = tested on: PC3 Prostate Cancer Cells; test: Growth inhibition assay, PC3 cells; conditions: for EC50: Table 1D; for IC50: Table 1C
Method: (§1) Growth inhibition assay to assess cytotoxicity in ETS vs non-ETS expressing cells. Cells were seeded in clear 96-well plates (VWR, Radnor, PA). Seeding densities were optimized for each cell line to support 5 days of linear growth. Following a 24 hours attachment period, cells in duplicate wells were treated with half-log increments of respective compounds (0 nM and 0.3 nM-10 μM). Working stocks were prepared from an initial 10 mM drug stock diluted in either 100% ethanol or dimethyl sulfoxide (DMSO). All wells contained a final concentration of 0.1% (v/v) respective organic solvent. Immediately following treatment, cell viability was measured for vehicle control (Day 0) wells. Cell viability was measured in the remaining wells after 72 hours of incubation with compound or vehicle control (Day 3).
(§2) Percent viability, relative to the initial cell seeding concentration, was calculated by ((TreatmentDay3−Vehicle ControlDay0)/(Vehicle ControlDay3−Vehicle ControlDay0))×100. Percent cell viability was plotted as a function of compound concentration (Log [M]) and the data were fit using a 3-parameter non-linear model with fixed Hill slope constant and 4-parameter non-linear model with variable Hill slope constant. The model with the best curve fit was used to estimate the GI50 in GraphPad Prism 7.0 software (GraphPad Software, La Jolla, CA). The 3-parameter equation used was Y=Bottom+(Top−Bottom)/(1+10[…]((X−Log[IC50]))). The 4-parameter equation used was Y=Bottom+(Top−Bottom)/(1+10[…]((Log[IC50]−X)*Hillslope)). Top and Bottom are plateaus in the units of the Y-axis (response). IC50 is the response (Y-axis) halfway between Top and Bottom plateaus.
(§3) All compounds were tested at least once in multi-well replicates and each experiment included one a control compound (i.e., MTM) to ensure the stable response of the cell lines. The selectivity index was estimated by determining the ratio of GI50 estimates between ETS fusion negative and ETS fusion positive cell lines.

[2] = tested on: A-204 (ATTC Cat. No., HTB-82); Rhabdomyosarcoma (embryonal); test: Growth inhibition assay, A-204 cells; conditions: for EC50: Table 1D; for IC50: Table 1C
Method: as §1, with “3). For viability measurements, 0.1 mM resazurin (Sigma, St. Louis, MO) was added to wells and following 3 hours of incubation at 37° C., fluorescence readings ([…]) were recorded using a SpectraMax M5 plate reader (Molecular Devices, Sunnyvale, CA).” for “3).”
as §2
as §3, with “GI50 values were determined by pooling all available experiments and reported with 95% confidence interval, calculated from GraphPad Prism 7.0 software curve fit. All” for “All”

[3] = tested on: G-401 (ATTC Cat. No., CRL-1441); Rhabdoid tumor of the kidney; test: Growth inhibition assay, G-401 cells; conditions: for EC50: Table 1D; for IC50: Table 1C
Method: as §1, with “3). For viability measurements, 0.1 mM resazurin (Sigma, St. Louis, MO) was added to wells and following 3 hours of incubation at 37° C., fluorescence readings ([…]) were recorded using a SpectraMax M5 plate reader (Molecular Devices, Sunnyvale, CA).” for “3).”
as §2
as §3, with “GI50 values were determined by pooling all available experiments and reported with 95% confidence interval, calculated from GraphPad Prism 7.0 software curve fit. All” for “All”

[4] = tested on: TC32 Ewing sarcoma cells, expressing EWS-FLI1; test: Growth inhibition assay, TC32 cells; conditions: for EC50: Table 1D, read-out: TC-32 Mean EC50; for PC:TC32 (cellular selectivity): ratio of GI50 PC3 to TC32; for TC32 vs. PC3 / IC50: Table 1C; for TC32 vs. PC3: cellular selectivity; for IC50: read-out: IC50 TC-32
U-2 OS bone osteosarcoma = test: Growth inhibition assay, U-2 OS cells; conditions: Table 1D
Method: as §1, with “3). For viability measurements, 0.1 mM resazurin (Sigma, St. Louis, MO) was added to wells and following 3 hours of incubation at 37° C., fluorescence readings ([…]) were recorded using a SpectraMax M5 plate reader (Molecular Devices, Sunnyvale, CA).” for “3).”
as §2
as §3, with “GI50 values were determined by pooling all available experiments and reported with 95% confidence interval, calculated from GraphPad Prism 7.0 software curve fit. All” for “All”

[5] = tested on: RH30 muscle rhabdomyosarcoma; test: Growth inhibition assay, RH30 cells; conditions: Table 1D
Method: as §1, with “3). For viability measurements, 0.1 mM resazurin (Sigma, St. Louis, MO) was added to wells and following 3 hours of incubation at 37° C., fluorescence readings ([…]) were recorded using a SpectraMax M5 plate reader (Molecular Devices, Sunnyvale, CA).” for “3).”
as §2
as §3, with “GI50 values were determined by pooling all available experiments and reported with 95% confidence interval, calculated from GraphPad Prism 7.0 software curve fit. All” for “All”

SMILES	EC50 [1] [µM]	EC50 [2] [µM]	EC50 [3] [µM]	EC50 [4] [µM]	PC:TC32 (cellular selectivity) [4]	EC50 (U-2 OS bone osteosarcoma) [µM]	EC50 [5] [µM]	IC50 [1] [µM]	TC32 vs. PC3 [4] [×]	IC50 [4] [µM]	IC50 [2] [µM]	IC50 [3] [µM]
CO[C@H](/C(=N/OCC(=O)N[C@@H](Cc1c[nH]c2ccccc12)c1nc(C)co1)[C@@H](O)[C@@H](C)O)[C@@H]1Cc2cc3cc(O[C@H]4C[C@@H](O[C@H]5C[C@@H](O)[C@H](O)C(C)O5)[C@H](O)C(C)O4)c(C)c(O)c3c(O)c2C(=O)[C@H]1O[C@H]1C[C@@H](O[C@H]2C[C@@H](O[C@H]3C[C@](C)(O)[C@H](O)C(C)O3)[C@H](O)C(C)O2)[C@H](O)C(C)O1 (some centres unmarked) [MTM (57)]	> 1.68	3.18	0.712	0.074	3.3	> 10	–	–	–	–	–	–
CO[C@H](/C(=N/OCC(=O)N[C@@H](Cc1c[nH]c2ccccc12)C(=O)N(C)C)[C@@H](O)[C@@H](C)O)[C@@H]1Cc2cc3cc(O[C@H]4C[C@@H](O[C@H]5C[C@@H](O)[C@H](O)C(C)O5)[C@H](O)C(C)O4)c(C)c(O)c3c(O)c2C(=O)[C@H]1O[C@H]1C[C@@H](O[C@H]2C[C@@H](O[C@H]3C[C@](C)(O)[C@H](O)C(C)O3)[C@H](O)C(C)O2)[C@H](O)C(C)O1 (some centres unmarked) [MTM (44)]	> 1.47	–	–	0.0845	35	–	–	–	–	–	–	–
COC(C(=NOCC(=O)NC(Cc1c[nH]c2ccccc12)C(=O)N1CC(C)(C)C1)C(O)C(C)O)C1Cc2cc3cc(OC4CC(OC5CC(O)C(O)C(C)O5)C(O)C(C)O4)c(C)c(O)c3c(O)c2C(=O)C1OC1CC(OC2CC(OC3CC(C)(O)C(O)C(C)O3)C(O)C(C)O2)C(O)C(C)O1 (centres unmarked) [MTM105]	0.177	–	0.0234	0.0294	–	> 10	0.0459	–	–	–	–	–
COC(C(=NOCC(=O)N(C)C(Cc1cn(C)c2ccccc12)C(=O)N1CCOCC1)C(O)C(C)O)C1Cc2cc3cc(OC4CC(OC5CC(O)C(O)C(C)O5)C(O)C(C)O4)c(C)c(O)c3c(O)c2C(=O)C1OC1CC(OC2CC(OC3CC(C)(O)C(O)C(C)O3)C(O)C(C)O2)C(O)C(C)O1 (centres unmarked) [AK-B6]	0.0523	–	–	0.0107	–	–	–	0.15 to 0.37	>3	0.032 to 0.12	–	–
CCOC(=O)[C@H](Cc1c[nH]c2ccccc12)NC(=O)CO/N=C(\[C@@H](O)[C@@H](C)O)[C@@H](OC)[C@@H]1Cc2cc3cc(O[C@H]4C[C@@H](O[C@H]5C[C@@H](O)[C@H](O)C(C)O5)[C@H](O)C(C)O4)c(C)c(O)c3c(O)c2C(=O)[C@H]1O[C@H]1C[C@@H](O[C@H]2C[C@@H](O[C@H]3C[C@](C)(O)[C@H](O)C(C)O3)[C@H](O)C(C)O2)[C@H](O)C(C)O1 (some centres unmarked) [MTM (41)]	4.06	–	–	0.266	13.5	–	–	–	–	–	–	–
CNC(=O)[C@H](Cc1c[nH]c2ccccc12)NC(=O)CO/N=C(\[C@@H](O)[C@@H](C)O)[C@@H](OC)[C@@H]1Cc2cc3cc(O[C@H]4C[C@@H](O[C@H]5C[C@@H](O)[C@H](O)C(C)O5)[C@H](O)C(C)O4)c(C)c(O)c3c(O)c2C(=O)[C@H]1O[C@H]1C[C@@H](O[C@H]2C[C@@H](O[C@H]3C[C@](C)(O)[C@H](O)C(C)O3)[C@H](O)C(C)O2)[C@H](O)C(C)O1 (some centres unmarked) [MTM (40)]	2.9	0.256	0.0402	0.414	11.8	> 10	1.2	–	–	–	–	–
COC(C(=NOCC(=O)NC(Cc1c[nH]c2ccccc12)C(=O)N1CCC1)C(O)C(C)O)C1Cc2cc3cc(OC4CC(OC5CC(O)C(O)C(C)O5)C(O)C(C)O4)c(C)c(O)c3c(O)c2C(=O)C1OC1CC(OC2CC(OC3CC(C)(O)C(O)C(C)O3)C(O)C(C)O2)C(O)C(C)O1 (centres unmarked) [MTM104]	0.671	0.883	0.222	0.0917	–	> 10	0.295	0.73	8	0.087	0.864	0.219
CCN(CC)C(=O)C(Cc1c[nH]c2ccccc12)NC(=O)CON=C(C(O)C(C)O)C(OC)C1Cc2cc3cc(OC4CC(OC5CC(O)C(O)C(C)O5)C(O)C(C)O4)c(C)c(O)c3c(O)c2C(=O)C1OC1CC(OC2CC(OC3CC(C)(O)C(O)C(C)O3)C(O)C(C)O2)C(O)C(C)O1 (centres unmarked) [MTM103]	0.0913	0.194	0.0255	0.0235	–	–	0.0294	–	–	–	–	–
CO[C@H](/C(=N/OCC(=O)N[C@H](CO)Cc1c[nH]c2ccccc12)[C@@H](O)[C@@H](C)O)[C@@H]1Cc2cc3cc(O[C@H]4C[C@@H](O[C@H]5C[C@@H](O)[C@H](O)C(C)O5)[C@H](O)C(C)O4)c(C)c(O)c3c(O)c2C(=O)[C@H]1O[C@H]1C[C@@H](O[C@H]2C[C@@H](O[C@H]3C[C@](C)(O)[C@H](O)C(C)O3)[C@H](O)C(C)O2)[C@H](O)C(C)O1 (some centres unmarked) [MTM (59)]	0.313	–	–	0.0847	4.8	–	–	–	–	–	–	–
COC(C(=NOCC(=O)NC(Cc1c[nH]c2ccccc12)C(=O)N1CCOCC1)C(O)C(C)O)C1Cc2cc3cc(OC4CC(OC5CC(O)C(O)C(C)O5)C(O)C(C)O4)c(C)c(O)c3c(O)c2C(=O)C1OC1CC(OC2CC(OC3CC(C)(O)C(O)C(C)O3)C(O)C(C)O2)C(O)C(C)O1 (centres unmarked) [MTM102]	1.65	2.74	0.591	0.162	–	–	–	2.7	17	0.156	2.3	0.514
CO[C@H](/C(=N/OCC(=O)N[C@@H](Cc1c[nH]c2ccccc12)C(=O)N(C)OC)[C@@H](O)[C@@H](C)O)[C@@H]1Cc2cc3cc(O[C@H]4C[C@@H](O[C@H]5C[C@@H](O)[C@H](O)C(C)O5)[C@H](O)C(C)O4)c(C)c(O)c3c(O)c2C(=O)[C@H]1O[C@H]1C[C@@H](O[C@H]2C[C@@H](O[C@H]3C[C@](C)(O)[C@H](O)C(C)O3)[C@H](O)C(C)O2)[C@H](O)C(C)O1 (some centres unmarked) [MTM (54)]	0.437	–	–	0.067	1.7	–	–	–	–	–	–	–
COC(C(=NOCC(=O)NC(Cc1cn(C)c2ccccc12)C(=O)N1CCOCC1)C(O)C(C)O)C1Cc2cc3cc(OC4CC(OC5CC(O)C(O)C(C)O5)C(O)C(C)O4)c(C)c(O)c3c(O)c2C(=O)C1OC1CC(OC2CC(OC3CC(C)(O)C(O)C(C)O3)C(O)C(C)O2)C(O)C(C)O1 (centres unmarked) [AK-B11]	0.666	–	–	0.0498	–	–	–	1.6 to 2.5	>8	0.147 to 0.3	–	–
